According to patent US8426365B2, “Method of treating or preventing tissue deterioration, injury or damage due to congestive heart failure” (Regenerx Biopharmaceuticals, Inc., priority 2005, dated 2013):

Tests used:
[1] = system: dystrophin deficient (mdx) mice; assay: Grip strength meter, dystrophin deficient (mdx) mice; format: in vivo; conditions: Mdx treated
Description: (§1) Four groups of mice were treated with thymosin beta 4. Group 1 was normal mice (BL10) that were given placebo (untreated). Group 2 was normal mice that were treated with thymosin beta 4. Group 3 was dystrophin deficient (mdx) mice treated with placebo and Group 4 was mdx mice treated with thymosin beta 4. Mice were treated with 150 micrograms of thymosin beta 4 in 300 microliters of buffer given intraperitoneally twice a week and placebo mice were given 300 microliters of buffer only. The mice exercised on a treadmill at a speed of 12 meters/minute for 30 minutes twice a week. Functional, behavioral and echocardiographic data were obtained at baseline and after 2 months, 4 months and 6 months of treatment.
(§2) Functional data were non-invasive measurements of skeletal muscle function. The muscle strength of the forelimbs and hindlimbs was assessed using a grip strength meter. The animals were allowed to hold onto the meter platform and then were slowly pulled until they lost their grip. The amount of force needed to free the grip was recorded. Multiple measurements were taken for each mouse at each time point. The same protocol was followed for hindlimb muscle strength. Another functional assessment was the Rotarod test. Here, mice were placed on a rotating bar and kept their balance and position as the bar rotated with increasing speed (10 RPM for 1 minute and then increased 0.2 RPM over the next three minutes). The time until the mouse falls was measured. This test was also repeated multiple times.

[2] = system: dystrophin deficient (mdx) mice; assay: VersaMax animal activity monitoring, dystrophin deficient (mdx) mice; format: in vivo; conditions: Mdx treated
Description: as §1
(§3) Behavioral data was collected using the VersaMax™ animal activity monitoring system. Mice were placed in a monitored box and activity was quantified by different sensors. Data includes horizontal activity, vertical activity and total distance traveled and many other activity parameters were measured. Multiple measurements were made over a 3 day period.

[3] = system: heart attack in the mouse model; conditions: administered immediately following a heart attack; Nature 2004; cited from earlier work
[4] = system: mouse MI-induced heart failure model; assay: Mouse myocardial infarction (MI) heart failure model; format: in vivo, C57 black mice; conditions: 150 μg/mouse i.p. immediately after MI, then every three days for 4 weeks
Description: The procedures used in this study are exactly same as that reported in Nature (432:466-472, 2004). Briefly, C57 black mice, 14 weeks old, were used in this study. Mice were given thymosin β4 (Bachem, Lot #FTHYB40501B) (150 μg/mouse) immediately after myocardial infarction and then every three days for 4 weeks by i.p. injection. The parameters of this study included cardiac morphology and function by echocardiography (echo), invasive cardiac function measurement using Millar catheter, survival rate, and histochemical analysis.

[5] = system: normal (BL10) mice; assay: Grip strength meter, normal (BL10) mice; format: in vivo; conditions: BL10 treated
Description: as §1, §2

[6] = system: dystrophin deficient (mdx) mice; assay: Rotarod test, dystrophin deficient (mdx) mice; format: in vivo; conditions: Mdx treated, time until the mouse falls
Description: as §1
as §2, with “Here, mice were placed on a rotating bar and kept their balance and position as the bar rotated with increasing speed (10 RPM for 1 minute and then increased 0.2 RPM over the next three minutes).” left out, “This test was also repeated multiple times.” left out

[7] = system: normal (BL10) mice; assay: VersaMax animal activity monitoring, normal (BL10) mice; format: in vivo; conditions: BL10 treated
Description: as §1, §3

[8] = system: normal (BL10) mice; assay: Rotarod test, normal (BL10) mice; format: in vivo; conditions: BL10 treated, time until the mouse falls
Description: as §1
as §2, with “Here, mice were placed on a rotating bar and kept their balance and position as the bar rotated with increasing speed (10 RPM for 1 minute and then increased 0.2 RPM over the next three minutes).” left out, “This test was also repeated multiple times.” left out

[9] = 2 month, 150 micrograms i.p. twice a week

Q: With “thymosin beta 4 (SDKPDMAEIEKFDKSKLKKTETQEKNPLPSKETIEQEKQAGES; Thymosin beta-4; UniProt P62328 2-44, looked up) [43 amino acid, 4.9 kDa ubiquitous polypeptide originally isolated from the thymus]” as the substance, how does the “Avg max forelimb strength” value [1, 9] read?
A: 3.78 KGF/kg

Q: What about the “Avg max hindlimb strength” value [1, 9] of the same substance?
A: 7.29 KGF/kg

Q: And the “Avg max forelimb strength” value ([1]; Baseline)?
A: 4.46 KGF/kg

Q: And the “Avg max hindlimb strength” value ([1]; Baseline)?
A: 6.29 KGF/kg

Q: And the Avg horizontal activity [2, 9]?
A: 961

Q: And the Avg movement time [2, 9]?
A: 18.9 s

Q: And the Avg total distance [2, 9]?
A: 167 cm

Q: What about the Avg vertical activity [2, 9] of the same substance?
A: 8.2

Q: And the Avg horizontal activity ([2]; Baseline)?
A: 1071

Q: And the Avg movement time ([2]; Baseline)?
A: 25 s

Q: And the Avg total distance ([2]; Baseline)?
A: 209 cm

Q: And the Avg vertical activity ([2]; Baseline)?
A: 12

Q: And the ejection fraction [3]?
A: able to improve

Q: What about the fractional shortening [3] of the same substance?
A: able to improve

Q: What about the “left ventricular end diastolic pressure (LVEDP)” value [4] of the same substance?
A: significantly reduced

Q: And the “left ventricular end diastolic volume” value [4]?
A: significantly attenuated

Q: What about the “left ventricular end systolic volume” value [4] of the same substance?
A: significantly attenuated

Q: And the “left ventricular systolic pressure (LVSP)” value [4]?
A: showed a trend in improvement (i.e., a reduction)

Q: What about the “rate of change (velocity) in left ventricular pressure-rise with time (dP/dt)” value [4] of the same substance?
A: significantly improved

Q: And the “rate of change (velocity) in left ventricular relaxation” value [4]?
A: showed a trend in affecting (improving)

Q: What about the “pulmonary edema (lung weight)” value ([4]; listed as TB4) of the same substance?
A: significantly attenuated

Q: And the “thickening of left ventricle / heart muscle (heart weight)” value ([4]; listed as TB4)?
A: significantly attenuated

Q: And the “Avg max forelimb strength” value [5, 9]?
A: 5.73 KGF/kg

Q: And the “Avg max hindlimb strength” value [5, 9]?
A: 9.18 KGF/kg

Q: What about the “Avg max forelimb strength” value ([5]; Baseline) of the same substance?
A: 5.57 KGF/kg

Q: And the “Avg max hindlimb strength” value ([5]; Baseline)?
A: 7.35 KGF/kg

Q: And the Rotorod [6, 9]?
A: 147

Q: What about the Rotorod ([6]; Baseline) of the same substance?
A: 211

Q: And the Avg horizontal activity [7, 9]?
A: 1287

Q: And the Avg movement time [7, 9]?
A: 27 s

Q: And the Avg total distance [7, 9]?
A: 239 cm

Q: And the Avg vertical activity [7, 9]?
A: 13.1

Q: And the Avg horizontal activity ([7]; Baseline)?
A: 1761

Q: What about the Avg movement time ([7]; Baseline) of the same substance?
A: 41 s

Q: And the Avg total distance ([7]; Baseline)?
A: 375 cm

Q: What about the Avg vertical activity ([7]; Baseline) of the same substance?
A: 28

Q: And the Rotorod [8, 9]?
A: 191

Q: What about the Rotorod ([8]; Baseline) of the same substance?
A: 214
